# Columns and labels:
# Type in all cases: in vivo
# Details in all cases: 1.0 lb ai/a, applied approximately 3 weeks after emergence, relative to non-treated
# Solanum carolinense = assay: Weed control screen: Carolina horsenettle
# Protocol: (§1) Herbicides were applied at a spray volume of 280 L/ha with no adjuvant added to any herbicide mixture. Weed control was rated on a 0 to 100 percent phytoxicity scale with 0 being no plant injury/phytotoxicity and 100 being complete plant dessication. Twenty-one weeds were evaluated for response to herbicides (Table 3). The weeds selected were a mixture of weeds common in agronomic and horticultural crops. Herbicide was applied to all species approximately 3 weeks after emergence. Plant phytotoxicity rated as percent control relative to the non-treated.
# Senna obtusifolia = assay: Weed control screen: sicklepod
# Protocol: as §1
# Jaquemontia tamnifolia = assay: Weed control screen: smallflower morningglory
# Protocol: as §1
# Ipomoea hederacea = assay: Weed control screen: entireleaf morningglory
# Protocol: as §1
# Sesbania exaltata = assay: Weed control screen: hemp sesbania
# Protocol: as §1
# Murdannia nudiflora = assay: Weed control screen: doveweed
# Protocol: as §1
# Amaranthus hybridus = assay: Weed control screen: smooth pigweed
# Protocol: as §1
# Crotalaria spectabilis = assay: Weed control screen: showy crotalaria
# Protocol: as §1
# Sida spinosa = assay: Weed control screen: prickly sida
# Protocol: as §1
# Kyllinga squamulata = assay: Weed control screen: cock's comb kyllinga
# Protocol: as §1
# Albizia julibrissin = assay: Weed control screen: silktree
# Protocol: as §1
# Ipomoea coccinea = assay: Weed control screen: red morningglory
# Protocol: as §1
# Abutilon theophrasti = assay: Weed control screen: velvetleaf
# Protocol: as §1
# Ipomoea lacunosa = assay: Weed control screen: pitted morningglory
# Protocol: as §1
# Eleusine indica = assay: Weed control screen: goosegrass
# Protocol: as §1
# Conyza candensis = assay: Weed control screen: glyphosate-resistant horseweed
# Protocol: as §1
# Sorghum halapense = assay: Weed control screen: johnsongrass
# Protocol: as §1
# Physalis angulata = assay: Weed control screen: cutleaf groundcherry
# Protocol: as §1
# Amaranthus palmeri = assay: Weed control screen: glyphosate resistant palmer amaranth
# Protocol: as §1
# Cyperus iria = assay: Weed control screen: rice flatsedge
# Protocol: as §1
# Ipomoea quamoclit = assay: Weed control screen: cypressvine morningglory
# Protocol: as §1
SMILES,Percent control (0 to 100) (Solanum carolinense) [%],Percent control (0 to 100) (Senna obtusifolia) [%],Percent control (0 to 100) (Jaquemontia tamnifolia) [%],Percent control (0 to 100) (Ipomoea hederacea) [%],Percent control (0 to 100) (Sesbania exaltata) [%],Percent control (0 to 100) (Murdannia nudiflora) [%],Percent control (0 to 100) (Amaranthus hybridus) [%],Percent control (0 to 100) (Crotalaria spectabilis) [%],Percent control (0 to 100) (Sida spinosa) [%],Percent control (0 to 100) (Kyllinga squamulata) [%],Percent control (0 to 100) (Albizia julibrissin) [%],Percent control (0 to 100) (Ipomoea coccinea) [%],Percent control (0 to 100) (Abutilon theophrasti) [%],Percent control (0 to 100) (Ipomoea lacunosa) [%],Percent control (0 to 100) (Eleusine indica) [%],Percent control (0 to 100) (Conyza candensis) [%],Percent control (0 to 100) (Sorghum halapense) [%],Percent control (0 to 100) (Physalis angulata) [%],Percent control (0 to 100) (Amaranthus palmeri) [%],further results
"O=C(O)CNCP(=O)(O)O [Glyphosate, glyphosate]",50,70,40,60,75,80,90,60,60,95,25,50,100,60,90,0,100,99,35,
"CP(=O)(O)CCC(N)C(=O)O (stereo not shown) [Glufosinate, glufosinate]",100,100,100,100,100,100,100,100,100,30,100,100,100,100,100,100,100,100,100,Percent control (0 to 100) (Cyperus iria): 60%; Percent control (0 to 100) (Ipomoea quamoclit): 100%
